PubChem BioAssay (NCI)
“And” between values parts separate entries of the source, which are not always exact repeats. Equal entries are not always repeated.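 These data come from cells grown in 96-well plates and exposed to compound for 48 hours at five concentrations. At the GI50, growth is halved. The concentration for full growth arrest is given as TGI.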

Experiments:
Experiment in all cases: NCI tumour cell line growth inhibition, 48 h
[1] = system: 786-0 renal
[2] = system: ACHN renal
[3] = system: CCRF-CEM leukemia
[4] = system: COLO 205 colon
[5] = system: DLD-1 colon
[6] = system: DMS 114 small cell lung
[7] = system: DMS 273 small cell lung
[8] = system: EKVX NSCLC
[9] = system: HCC-2998 colon
[10] = system: HCT-116 colon
[11] = system: HCT-15 colon
[12] = system: HL-60(TB) leukemia
[13] = system: HOP-18 NSCLC
[14] = system: HOP-62 NSCLC
[15] = system: HOP-92 NSCLC
[16] = system: HT29 colon
[17] = system: IGROV1 ovarian
[18] = system: K-562 leukemia
[19] = system: KM12 colon
[20] = system: KM20L2 colon
[21] = system: LOX IMVI melanoma
[22] = system: LXFL 529 NSCLC
[23] = system: M14 melanoma
[24] = system: M19-MEL melanoma
[25] = system: MALME-3M melanoma
[26] = system: MOLT-4 leukemia
[27] = system: NCI-H226 lung
[28] = system: NCI-H23 lung
[29] = system: NCI-H460 lung
[30] = system: NCI-H522 lung
[31] = system: OVCAR-3 ovarian
[32] = system: OVCAR-5 ovarian
[33] = system: OVCAR-8 ovarian
[34] = system: RPMI-8226 leukemia
[35] = system: RXF 393 renal
[36] = system: RXF-631 renal
[37] = system: SF-268 CNS
[38] = system: SF-295 CNS
[39] = system: SF-539 CNS
[40] = system: SK-MEL-2 melanoma
[41] = system: SK-MEL-28 melanoma
[42] = system: SK-MEL-5 melanoma
[43] = system: SK-OV-3 ovarian
[44] = system: SN12C renal
[45] = system: SNB-19 CNS
[46] = system: SNB-75 CNS
[47] = system: SNB-78 CNS
[48] = system: SR leukemia
[49] = system: SW-620 colon
[50] = system: TK-10 renal
[51] = system: U251 CNS
[52] = system: UACC-257 melanoma
[53] = system: UACC-62 melanoma
[54] = system: UO-31 renal
[55] = system: XF 498 CNS
[56] = system: BT-549 breast
[57] = system: DU-145 prostate
[58] = system: MDA-MB-231 breast
[59] = system: MDA-MB-435
[60] = system: MDA-N
[61] = system: NCI/ADR-RES ovarian
[62] = system: P388 leukemia
[63] = system: PC-3 prostate

## COc1cc2c(cc1OC)C1c3ccccc3C(C#N)(C2)N(C(=O)c2ccccc2)C1O (stereo not drawn)
[1]
  TGI: > 100000 nM
[2]
  TGI: > 100000 nM
[3]
  TGI: > 100000 nM
[4]
  TGI: 53100 nM
[5]
  TGI: > 100000 nM
[6]
  TGI: > 100000 nM
[7]
  TGI: > 100000 nM
[8]
  TGI: > 100000 nM
[9]
  TGI: > 100000 nM
[10]
  TGI: > 100000 nM
[11]
  TGI: > 100000 nM
[12]
  TGI: > 100000 nM
[13]
  TGI: > 100000 nM
[14]
  TGI: > 100000 nM
[15]
  TGI: > 100000 nM
[16]
  TGI: > 100000 nM
[17]
  TGI: > 100000 nM
[18]
  TGI: > 100000 nM
[19]
  TGI: > 100000 nM
[20]
  TGI: > 100000 nM
[21]
  TGI: > 100000 nM
[22]
  TGI: > 100000 nM
[23]
  TGI: > 100000 nM
[24]
  TGI: > 100000 nM
[25]
  TGI: > 100000 nM
[26]
  TGI: > 100000 nM
[27]
  TGI: > 100000 nM
[28]
  TGI: > 100000 nM
[29]
  TGI: > 100000 nM
[30]
  TGI: 56400 nM
[31]
  TGI: > 100000 nM
[32]
  TGI: > 100000 nM
[33]
  TGI: > 100000 nM
[34]
  TGI: > 100000 nM
[35]
  TGI: > 100000 nM
[36]
  TGI: > 100000 nM
[37]
  TGI: > 100000 nM
[38]
  TGI: > 100000 nM
[39]
  TGI: > 100000 nM
[40]
  TGI: > 100000 nM
[41]
  TGI: > 100000 nM
[42]
  TGI: 90000 nM
[43]
  TGI: > 100000 nM
[44]
  TGI: > 100000 nM
[45]
  TGI: > 100000 nM
[46]
  TGI: > 100000 nM
[47]
  TGI: > 100000 nM
[48]
  TGI: > 100000 nM
[49]
  TGI: > 100000 nM
[50]
  TGI: > 100000 nM
[51]
  TGI: > 100000 nM
[52]
  TGI: > 100000 nM
[53]
  TGI: > 100000 nM
[54]
  TGI: > 100000 nM
[55]
  TGI: 95900 nM

## CC[C@@H](C)[C@@H]1NC(=O)C(NC(=O)C(CC(C)C)N(C)C(=O)C2CCCN2C(=O)C(C)O)C(C)OC(=O)C(Cc2ccc(OC)cc2)N(C)C(=O)C2CCCN2C(=O)C(CC(C)C)NC(=O)C(C)C(=O)C(C(C)C)OC(=O)C[C@H]1O (stereo partly drawn)
[1]
  TGI: 8.27 nM and 53.3 nM
[2]
  TGI: 20.4 nM and 53 nM
[56]
  TGI: 96.7 nM
[57]
  TGI: 50.4 nM
[9]
  TGI: 5.11 nM and 31.4 nM
[23]
  TGI: 6.48 nM and 39 nM
[58]
  TGI: 19.9 nM and 53 nM
[59]
  TGI: 3.16 nM and 8.45 nM
[60]
  GI50: 2.1 nM
[26]
  TGI: 54.7 nM and 25.5 nM
[61]
  TGI: 1880 nM and 359 nM
[62]
  TGI: 30 nM and < 10.3 nM
[63]
  GI50: 2.51 nM
  TGI: 42.5 nM and 48.7 nM
[35]
  TGI: 10 nM and 64.7 nM
[38]
  TGI: 11.5 nM and 19.4 nM and 29 nM
[47]
  GI50: 0.00165 nM
[50]
  TGI: 49.5 nM and 74.1 nM
